Where a SMILES comes first, the peptide text is derived from it. Bridges are numbered along the chain shown (N, C = ends). The star is where a group is joined. Palmitoyl = CCCCCCCCCCCCCCCC(=O)*
Tests used:
[1] = tested on: human red blood cells (hRBCs); experiment: Hemolysis assay; format: cell-based; conditions: peptide concentration causing 50% hemolysis; 4% (v/v) hRBCs in PBS, 1 h, 37 °C, absorbance 540 nm, triplicate
Description: The hemolysis assay was performed by using the method reported previously. Fresh human red blood cells (hRBCs) with anticoagulant (EDTA) were rinsed three times with a PBS by centrifugation at 800× g for 10 min and diluted with PBS. The lipopeptides were serially diluted on a 96-well microtiter polystyrene plate and hRBCs were added up to a final volume of 100 μL. The peptide concentration ranged between 0.5 and 256 μg/mL and the final hRBCs concentration was 4% (v/v). Controls for zero hemolysis (blank) and 100% hemolysis consisted of hRBCs suspended in PBS and 1% of Triton-X 100, respectively. The plate was incubated for 1 h at 37 °C and then centrifuged (800× g, 10 min, 4 °C). Subsequently, the supernatant was […] to new microtiter plates and the absorbance at 540 nm was measured. All experiments were conducted in triplicate. HC50 was calculated using an ic50.tk tool. Protocol of the study received approval from the local Bioethics Committee at the Medical University of Gdańsk (NKBBN/262/2019, approval date: 10 June 2019).

[2] = tested on: Candida lipolytica PCM 2680-FY; format: cell-based; conditions: 24 h
Description: (§1) The Staphylococcus aureus ATCC 25923, Staphylococcus epidermidis ATCC 14990, Escherichia coli ATCC 25922, Pseudomonas aeruginosa ATCC 9027, Candida albicans ATCC 10231, Candida glabrata ATCC 15126, Candida lipolytica PCM 2680-FY, and Candida tropicalis PCM 2709-FY strains were acquired from the Polish Collection of Microorganisms (PCM, Polish Academy of Sciences, Wrocław, Poland) and from the American Type Culture Collection (ATCC). All the strains were stored at −80 °C in Roti-Store cryo vials and before the tests were transferred into fresh Mueller–Hinton broth (MHB, Biocorp, Warsaw, Poland) for bacteria or RPMI-1640 (Sigma-Aldrich, Steinheim, Germany) for fungi and incubated for 24 h at 37 °C. Then, the cultures were seeded on Mueller–Hinton agar (BioMaxima, Lublin, Poland) or Sabouraud dextrose agar (SDA, BioMaxima, Lublin, Poland) plates, respectively, and incubated as just mentioned. These agar cultures were used for further microbiological assays. Cell densities for all assays were adjusted spectrophotometrically (Multiskan GO Microplate Spectrophotometer, Thermo Fisher Scientific, Vantaa, Finland) at 600 and 660 nm for bacteria and fungi, respectively.
(§2) The assay was performed to evaluate the effect of the lipopeptides in preventing biofilm formation. The preparation of inoculums was followed by a ca. 500-fold dilution of the 24 h cultures of microorganisms. Briefly, 50 μL of the compounds in the concentration range, diluted in appropriate medium, were prepared on 96-well polystyrene flat-bottom plates. Subsequently, the 50 μL of the bacterial/fungal inoculums were added to reach the same microbial density as that in the MBEC assay. After 24 h of incubation at 37 °C, the wells were rinsed three times with PBS and the fresh media with resazurin (4 g/L) were added. The MBICs were read after 1 h. All experiments were conducted in triplicate.

[3] = tested on: Escherichia coli ATCC 25922; format: cell-based; conditions: ATCC 25922, 24 h
Description: as §1, §2

[4] = tested on: Candida glabrata ATCC 15126; format: cell-based; conditions: ATCC 15126, 24 h
Description: as §1, §2

[5] = tested on: Staphylococcus epidermidis ATCC 14990; format: cell-based; conditions: ATCC 14990, 24 h
Description: as §1, §2

[6] = tested on: Pseudomonas aeruginosa ATCC 9027; format: cell-based; conditions: ATCC 9027, 24 h
Description: as §1, §2

[7] = tested on: Candida albicans ATCC 10231; format: cell-based; conditions: ATCC 10231, 24 h
Description: as §1, §2

[8] = tested on: Candida tropicalis PCM 2709-FY; format: cell-based; conditions: PCM 2709-FY, 24 h
Description: as §1, §2

[9] = tested on: Staphylococcus aureus ATCC 25923; format: cell-based; conditions: ATCC 25923, 24 h
Description: as §1, §2

[10] = RP-HPLC determination of peptide hydrophobicity; format: physicochemical; conditions: 0.1% TFA; for reduced retention time t’R: RP-HPLC retention as measure of hydrophobicity, Waters X-Bridge Shield RP-18 3.0 × 100 mm, 3.5 μm, linear 20–65% acetonitrile in water over 30 min, 0.5 mL/min, 25.0 °C, UV 214 nm, 1 g/L, triplicate; for ∆tR: tR of cyclic analog − tR of parent lipopeptide, RP-HPLC, RP-18, 20–65% acetonitrile over 30 min
Description: The peptides were analyzed by RP-HPLC to determine relative hydrophobicity vs. retention time of each compound. In general, more hydrophobic lipopeptides will elute later than hydrophilic ones. Using this simple rule enables comparison of hydrophobicity by reduced retention times (t’R) and differences in retention time between the cyclic analog and its linear parent lipopeptide (Table 1). It can be deduced that the presence of cystine moiety has led to increased hydrophobicity. All cyclic lipopeptides are more hydrophobic than their linear counterparts but the effect of disulfide cyclization on retention is different in each pair. The highest increase in retention was noticed for the shortest lipopeptides L1 (C16-KKK-NH2) and C1 (C16-CKKKC-NH2). The differences between lipopeptides with one arginine residue indicate that its position is crucial for retention and therefore hydrophobicity. To learn how the arginine position affects hydrophobicity, the retention time of compound L2 (C16-KKKK-NH2) or C2 (C16-CKKKKC-NH2) was subtracted from that of the lipopeptides with one arginine residue, linear (L3, L4, L5, L6) or cyclic (C3, C4, C5, C6), respectively. In Figure 2 the effect of arginine position on retention time is related to unsubstituted lipopeptide.
To determine peptide hydrophobicity, a Waters Alliance e2695 system with a Waters 2998 PDA Detector (software-Empower 3, Waters, Milford, MA, USA) was used. All analyses were carried out on a Waters X-Bridge Shield RP-18 column (3.0 × 100 mm, 3.5 μm particle size, 130 Å pore size). The Shield Technology column with embedded polar groups was used to minimize interactions of unreacted silanol groups with basic lipopeptides. The peptides were dissolved in water (0.1% TFA, v/v) up to a concentration of 1 g/L. UV detection at 214 nm was used, and samples (10 μL) were eluted with a linear 20–65% acetonitrile gradient in deionized water over 30 min at 25.0 ± 0.1 °C. The mobile phase flow rate was 0.5 mL/min. Both eluents contained 0.1% (v/v) of TFA. Each peptide sample was analyzed in triplicate. Maximum standard deviation and coefficient of variation were 0.042 and 0.25%, respectively.

Compound: CCCCCCCCCCCCCCCC(=O)N[C@H]1CSSC[C@@H](C(N)=O)NC(=O)[C@H](CCCCN)NC(=O)[C@H](CCCNC(=N)N)NC(=O)[C@H](CCCCN)NC(=O)[C@H](CCCCN)NC1=O [C5, C16-CKKRKC-NH2] (Palmitoyl-CKKRKC-NH2; disulfide 1-6)
- HC50 [1]: 97.0 ± 15.4 µg/mL
- MBIC C. lipolytica [2]: 8 µg/mL
- MBIC E. coli [3]: 32 µg/mL
- MBIC C. glabrata [4]: 16 µg/mL
- MBIC S. epidermidis [5]: 16 µg/mL
- MBIC P. aeruginosa [6]: 64 µg/mL
- MBIC C. albicans [7]: 16 µg/mL
- MBIC C. tropicalis [8]: 8 µg/mL
- MBIC S. aureus [9]: 32 µg/mL
- reduced retention time t’R [10]: 16.16 min
- ∆tR [10]: +1.15 min

Compound: CCCCCCCCCCCCCCCC(=O)N[C@H]1CSSC[C@@H](C(N)=O)NC(=O)[C@H](CCCNC(=N)N)NC(=O)[C@H](CCCCN)NC(=O)[C@H](CCCCN)NC(=O)[C@H](CCCCN)NC1=O [C6, C16-CKKKRC-NH2] (Palmitoyl-CKKKRC-NH2; disulfide 1-6)
- HC50 [1]: 71.0 ± 6.4 µg/mL
- MBIC C. lipolytica [2]: 8 µg/mL
- MBIC E. coli [3]: 64 µg/mL
- MBIC C. glabrata [4]: 8 µg/mL
- MBIC S. epidermidis [5]: 8 µg/mL
- MBIC P. aeruginosa [6]: 64 µg/mL
- MBIC C. albicans [7]: 16 µg/mL
- MBIC C. tropicalis [8]: 8 µg/mL
- MBIC S. aureus [9]: 32 µg/mL
- reduced retention time t’R [10]: 16.32 min
- ∆tR [10]: +1.43 min

Compound: CCCCCCCCCCCCCCCC(=O)N[C@H]1CSSC[C@@H](C(N)=O)NC(=O)[C@H](CCCCN)NC(=O)[C@H](CCCCN)NC(=O)[C@H](CCCNC(=N)N)NC(=O)[C@H](CCCNC(=N)N)NC1=O [C7, C16-CRRKKC-NH2] (Palmitoyl-CRRKKC-NH2; disulfide 1-6)
- HC50 [1]: 92.0 ± 9.6 µg/mL
- MBIC C. lipolytica [2]: 8 µg/mL
- MBIC E. coli [3]: 128 µg/mL
- MBIC C. glabrata [4]: 16 µg/mL
- MBIC S. epidermidis [5]: 16 µg/mL
- MBIC P. aeruginosa [6]: 128 µg/mL
- MBIC C. albicans [7]: 16 µg/mL
- MBIC C. tropicalis [8]: 8 µg/mL
- MBIC S. aureus [9]: 16 µg/mL
- reduced retention time t’R [10]: 16.83 min
- ∆tR [10]: +1.25 min

Compound: CCCCCCCCCCCCCCCC(=O)N[C@@H](CCCCN)C(=O)N[C@@H](CCCCN)C(=O)N[C@@H](CCCCN)C(N)=O [L1, C16-KKK-NH2]
- HC50 [1]: 90.0 ± 6.5 µg/mL
- MBIC C. lipolytica [2]: 32 µg/mL
- MBIC E. coli [3]: 32 µg/mL
- MBIC C. glabrata [4]: 128 µg/mL
- MBIC S. epidermidis [5]: 16 µg/mL
- MBIC P. aeruginosa [6]: 32 µg/mL
- MBIC C. albicans [7]: 128 µg/mL
- MBIC C. tropicalis [8]: 16 µg/mL
- MBIC S. aureus [9]: 32 µg/mL
- reduced retention time t’R [10]: 16.14 min

Source: publication PMC7582905, “Effect of Disulfide Cyclization of Ultrashort Cationic Lipopeptides on Antimicrobial Activity and Cytotoxicity” (International Journal of Molecular Sciences, 2020)
